≈ marks a conversion by molar mass, not a printed value.
Key:
[1] = system: C. difficile strain 4118 (CD4118, ATCC BAA-1870, ribotype 027); assay: MIC by broth microdilution; type: cell-based, Clostridium difficile; conditions: for MIC: Clostridioides difficile, ATCCBAA1870, BHIS broth, anaerobic, 20–24 h, n = 2, read-out: MIC C. difficile 4118; for in vitro activity against CD4118 (in words): growth inhibition, MIC assay
[2] = system: C. difficile strain 630 (CD630, ATCC BAA-1382-FZ, ribotype 012); assay: MIC by broth microdilution; type: cell-based, Clostridium difficile; conditions: for MIC: Clostridioides difficile, ATCCBAA1382, BHIS broth, anaerobic, 20–24 h, n = 2; for in vitro activity against CD630 (in words): growth inhibition, MIC assay
[3] = system: B. thetaiotaomicron ATCC 29148; assay: microbe, parasite or virus in culture; type: cell-based; conditions: Bacteroides thetaiotaomicron, ATCC29148; B. thetaiotaomicron ATCC 29148; supplemented Brucella broth, anaerobic; duplicate; read-out: MIC
[4] = system: C. sporogenes ATCC 15579; assay: MIC by broth microdilution; type: cell-based; conditions: Clostridium sporogenes, ATCC15579, BHIS, anaerobic, duplicate
[5] = system: L. plantarum ATCC 8014; assay: MIC by broth microdilution; type: cell-based; conditions: Lactiplantibacillus plantarum, ATCC8014; L. plantarum ATCC 8014; CAMHB with 5% laked horse blood, ~48 h; duplicate; read-out: MIC
[6] = system: S. aureus RN4220; assay: MIC by broth microdilution; type: cell-based; conditions: Staphylococcus aureus, CAMHB, aerobic, duplicate
[7] = system: B. longum subsp. longum Strain 44B; assay: MIC by broth microdilution; type: cell-based; conditions: Bifidobacterium longum; B. longum subsp. longum 44B; LSM broth, anaerobic; duplicate; read-out: MIC
[8] = system: P. distasonis ATCC 8503; assay: MIC by broth microdilution; type: cell-based; conditions: Parabacteroides distasonis, ATCC8503; P. distasonis ATCC 8503; supplemented Brucella broth, anaerobic; duplicate; read-out: MIC
[9] = system: L. reuteri Strain CF48-3A; assay: MIC by broth microdilution; type: cell-based, Lactobacillus reuteri; conditions: Limosilactobacillus reuteri; L. reuteri CF48-3A; CAMHB with 5% laked horse blood, ~48 h; duplicate; read-out: MIC
[10] = system: B. breve Strain EX336960VC19; assay: MIC by broth microdilution; type: cell-based; conditions: Bifidobacterium breve; B. breve EX336960VC19; LSM broth, anaerobic; duplicate; read-out: MIC
[11] = system: B. subtilis ATCC 6051; assay: MIC by broth microdilution; type: cell-based; conditions: Bacillus subtilis, ATCC6051; B. subtilis ATCC 6051; CAMHB, aerobic; duplicate; read-out: MIC
[12] = system: B. fragilis Strain CL05T00C42; assay: MIC by broth microdilution; type: cell-based; conditions: Bacteroides fragilis; B. fragilis CL05T00C42; supplemented Brucella broth, anaerobic; duplicate; read-out: MIC
[13] = system: A. baumannii M2; assay: MIC by broth microdilution; type: cell-based; conditions: Acinetobacter baumannii; A. baumannii M2; CAMHB, aerobic; duplicate; read-out: MIC
[14] = system: C. clostridioforme ATCC 25537; assay: MIC by broth microdilution; type: cell-based, Clostridium clostridioforme; conditions: Clostridium, ATCC25537; C. clostridioforme ATCC 25537; BHIS, anaerobic; duplicate; read-out: MIC
[15] = system: L. johnsonii Strain 135-1-CHN; assay: MIC by broth microdilution; type: cell-based; conditions: Lactobacillus johnsonii, STRAIN1351CHN; L. johnsonii 135-1-CHN; CAMHB with 5% laked horse blood, ~48 h; duplicate; read-out: MIC
[16] = system: P. aeruginosa PAO1; assay: MIC by broth microdilution; type: cell-based; conditions: Pseudomonas aeruginosa; P. aeruginosa PAO1; CAMHB, aerobic; duplicate; read-out: MIC
[17] = system: S. epidermidis 1457; assay: MIC by broth microdilution; type: cell-based; conditions: Staphylococcus epidermidis; S. epidermidis 1457; CAMHB, aerobic; duplicate; read-out: MIC
[18] = system: P. nigrescens ATCC 33563; assay: MIC by broth microdilution; type: cell-based; conditions: Prevotella nigrescens, ATCC33563; P. nigrescens ATCC 33563; supplemented Brucella broth, anaerobic; duplicate; read-out: MIC

Row | Compound | MIC [1] | MIC [2] | in vitro activity against CD4118 (in words) [1] | in vitro activity against CD630 (in words) [2] | further results
1 | O=C(Nc1ccc(Oc2ccccc2)cc1)c1cc(I)cc(I)c1O [Compound 5a] | 1 µg/mL (≈ 1.79 µM) | 0.5 µg/mL (≈ 0.897 µM) | exhibited in vitro activity | exhibited in vitro activity | 
2 | COc1c(I)cc(I)cc1C(=O)Nc1ccc(Oc2ccccc2)cc1 [Compound 5b] | > 32 µg/mL | > 32 µg/mL | inactive | inactive | 
3 | O=C(Nc1ccc(Oc2ccccc2)cc1)c1cc(I)cc(I)c1 [Compound 5c] | > 32 µg/mL | > 32 µg/mL | inactive | inactive | 
4 | CN(C(=O)c1cc(I)cc(I)c1O)c1ccc(Oc2ccccc2)cc1 [Compound 5d] | > 32 µg/mL | > 32 µg/mL | inactive | inactive | 
5 | O=C(Nc1ccc(Oc2ccc(F)cc2)cc1)c1cc(I)cc(I)c1O [Compound 5e] | 0.13 µg/mL (≈ 0.226 µM) | 0.13 µg/mL (≈ 0.226 µM) | exhibited in vitro activity | exhibited in vitro activity | 
6 | Cc1ccc(Oc2ccc(NC(=O)c3cc(I)cc(I)c3O)cc2)cc1 [Compound 5f] | 0.25 µg/mL (≈ 0.438 µM) | 0.13 µg/mL (≈ 0.228 µM) | exhibited in vitro activity | exhibited in vitro activity | 
7 | O=C(Nc1ccc(Oc2ccc(Cl)cc2)cc1)c1cc(I)cc(I)c1O [Compound 5g] | 0.25 µg/mL (≈ 0.423 µM) | 0.13 µg/mL (≈ 0.22 µM) | exhibited in vitro activity | exhibited in vitro activity | 
8 | COc1c(I)cc(I)cc1C(=O)Nc1ccc(Oc2ccc(Cl)cc2)cc1 [Compound 5h] | > 32 µg/mL | > 32 µg/mL | inactive | inactive | 
9 | O=C(Nc1ccc2ccccc2c1)c1cc(I)cc(I)c1O [Compound 6a] | 0.5 µg/mL (≈ 0.971 µM) | 0.5 µg/mL (≈ 0.971 µM) | exhibited in vitro activity | exhibited in vitro activity | MIC [3]: > 32 µg/mL; MIC [4]: 8 µg/mL (≈ 15.5 µM); MIC [5]: > 32 µg/mL; MIC [6]: 0.25 µg/mL (≈ 0.485 µM); MIC [7]: 32 µg/mL (≈ 62.1 µM); MIC [8]: 16 µg/mL (≈ 31.1 µM); MIC [9]: 32 µg/mL (≈ 62.1 µM); MIC [10]: 32 µg/mL (≈ 62.1 µM); MIC [11]: 0.06 µg/mL (≈ 0.116 µM); MIC [12]: 32 µg/mL (≈ 62.1 µM); MIC [13]: > 32 µg/mL; MIC [14]: 4 µg/mL (≈ 7.77 µM); MIC [15]: 32 µg/mL (≈ 62.1 µM); MIC [16]: > 32 µg/mL; MIC [17]: 0.06 µg/mL (≈ 0.116 µM); MIC [18]: 8 µg/mL (≈ 15.5 µM)
10 | COc1c(I)cc(I)cc1C(=O)Nc1ccc2ccccc2c1 [Compound 6b] | > 32 µg/mL | > 32 µg/mL | inactive | inactive | 
11 | O=C(Nc1ccc2ccccc2c1)c1cc(I)cc(I)c1 [Compound 6c] | > 32 µg/mL | > 32 µg/mL | inactive | inactive | 
12 | O=C(Nc1ccc(Cl)cc1)c1cc(I)cc(I)c1O [Compound 7b] | 0.5 µg/mL (≈ 1 µM) | 0.25 µg/mL (≈ 0.501 µM) |  |  | MIC [3]: > 32 µg/mL; MIC [4]: 16 µg/mL (≈ 32 µM); MIC [5]: 32 µg/mL (≈ 64.1 µM); MIC [6]: 0.06 µg/mL (≈ 0.12 µM); MIC [7]: 8 µg/mL (≈ 16 µM); MIC [8]: 8 µg/mL (≈ 16 µM); MIC [9]: 32 µg/mL (≈ 64.1 µM); MIC [10]: 8 µg/mL (≈ 16 µM); MIC [11]: 0.06 µg/mL (≈ 0.12 µM); MIC [12]: 32 µg/mL (≈ 64.1 µM); MIC [13]: 32 µg/mL (≈ 64.1 µM); MIC [14]: 16 µg/mL (≈ 32 µM); MIC [15]: 32 µg/mL (≈ 64.1 µM); MIC [16]: > 32 µg/mL; MIC [17]: ≤ 0.03 µg/mL; MIC [18]: 4 µg/mL (≈ 8.01 µM)

Second part, led by results:

Row | MIC [1] | MIC [2] | Compound | in vitro activity against CD4118 (in words) [1] | in vitro activity against CD630 (in words) [2] | further results
13 | 1 µg/mL (≈ 1.85 µM) | 0.5 µg/mL (≈ 0.924 µM) | O=C(Nc1ccc(-c2ccccc2)cc1)c1cc(I)cc(I)c1O [Compound 7a] |  |  | 
14 | 8 µg/mL (≈ 16 µM) | 8 µg/mL (≈ 16 µM) | O=C(Nc1ccccc1Cl)c1cc(I)cc(I)c1O [Compound 7c] |  |  | 
15 | 0.25 µg/mL (≈ 0.423 µM) | 0.13 µg/mL (≈ 0.22 µM) | O=C(Nc1ccc(I)cc1)c1cc(I)cc(I)c1O [Compound 7d] |  |  | 
16 | 0.5 µg/mL (≈ 0.904 µM) | 0.25 µg/mL (≈ 0.452 µM) | O=C(Nc1ccc2c(c1)Cc1ccccc1-2)c1cc(I)cc(I)c1O [Compound 7e, N-(9H-Fluoren-2-yl)-2-hydroxy-3,5-diiodobenzamide] |  |  | 
17 | 2 µg/mL (≈ 3.79 µM) | 2 µg/mL (≈ 3.79 µM) | O=C(NCCc1ccccc1Cl)c1cc(I)cc(I)c1O [Compound 7f] |  |  | 
18 | 1 µg/mL (≈ 1.9 µM) | 1 µg/mL (≈ 1.9 µM) | O=C(NCCc1cccc(Cl)c1)c1cc(I)cc(I)c1O [Compound 7g] |  |  | 
19 | 0.5 µg/mL (≈ 0.948 µM) | 0.25 µg/mL (≈ 0.474 µM) | O=C(NCCc1ccc(Cl)cc1)c1cc(I)cc(I)c1O [Compound 7h] |  |  | 
20 | 0.5 µg/mL (≈ 0.89 µM) | 0.25 µg/mL (≈ 0.445 µM) | O=C(NCCc1ccc(Cl)cc1Cl)c1cc(I)cc(I)c1O [Compound 7i] |  |  | 

Reference: PMC5025651, “Reprofiled anthelmintics abate hypervirulent stationary-phase Clostridium difficile” (Scientific Reports, 2016)
